Key:
SCC-3 = assay: cells; format: functional, cell-based; details: Homo sapiens;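 note: cell viability assay measuring inhibition of SCC-3 cell growth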
Description: SANGER: Inhibition of human SCC-3 cell growth in a cell viability assay.

LB647-SCLC = assay: cells; format: functional, cell-based; details: Homo sapiens;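 note: cell growth inhibition, read out by a viability assay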
Description: SANGER: Inhibition of human LB647-SCLC cell growth in a cell viability assay.

NCI-H2196 = assay: cells; format: functional, cell-based; details: Homo sapiens;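 note: cell viability assay used as the readout of growth inhibition in NCI-H2196 cells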
Description: SANGER: Inhibition of human NCI-H2196 cell growth in a cell viability assay.

REH = assay: cells; format: functional, cell-based; details: Homo sapiens;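 note: growth inhibition of REH cells determined with a cell viability read-out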
Description: SANGER: Inhibition of human REH cell growth in a cell viability assay.

NCI-H1882 = assay: cells; format: functional, cell-based; details: Homo sapiens
Description: SANGER: Inhibition of human NCI-H1882 cell growth in a cell viability assay.

NCI-H719 = assay: cells; format: functional, cell-based; details: Homo sapiens;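 note: growth inhibition of the cultured cell line, read out with a viability assay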
Description: SANGER: Inhibition of human NCI-H719 cell growth in a cell viability assay.

BC-3 = assay: cells; format: functional, cell-based; details: Homo sapiens;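 note: cell viability assay measuring growth inhibition of human BC-3 cells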
Description: SANGER: Inhibition of human BC-3 cell growth in a cell viability assay.

TE-15 = assay: cells; format: functional, cell-based; details: Homo sapiens;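 note: cell viability readout of growth inhibition in TE-15 cells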
Description: SANGER: Inhibition of human TE-15 cell growth in a cell viability assay.

NCI-H1963 = assay: cells; format: functional, cell-based; details: Homo sapiens
Description: SANGER: Inhibition of human NCI-H1963 cell growth in a cell viability assay.

SUP-T1 = assay: cells; format: functional, cell-based; details: Homo sapiens;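 note: growth inhibition of human SUP-T1 cells, read out as cell viability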
Description: SANGER: Inhibition of human SUP-T1 cell growth in a cell viability assay.

CESS = assay: SANGER: Inhibition of human CESS cell growth in a cell viability assay.; format: functional, cell-based
LOUCY = assay: cells; format: functional, cell-based; details: Homo sapiens;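 note: growth inhibition of human LOUCY cells, read out with a cell viability assay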
Description: SANGER: Inhibition of human LOUCY cell growth in a cell viability assay.

SK-MM-2 = assay: cells; format: functional, cell-based; details: Homo sapiens;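 note: growth inhibition of human SK-MM-2 cells, read out with a cell viability assay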
Description: SANGER: Inhibition of human SK-MM-2 cell growth in a cell viability assay.

PF-382 = assay: cells; format: functional, cell-based; details: Homo sapiens
Description: SANGER: Inhibition of human PF-382 cell growth in a cell viability assay.

NCI-H322M = assay: cells; format: functional, cell-based; details: Homo sapiens;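 note: cell viability assay measuring inhibition of growth of human NCI-H322M cells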
Description: SANGER: Inhibition of human NCI-H322M cell growth in a cell viability assay.

KARPAS-422 = assay: cells; format: functional, cell-based; details: Homo sapiens
Description: SANGER: Inhibition of human KARPAS-422 cell growth in a cell viability assay.

IM-9 = assay: SANGER: Inhibition of human IM-9 cell growth in a cell viability assay.; format: functional, cell-based
K052 = assay: cells; format: functional, cell-based; details: Homo sapiens;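 note: Read-out from a cell viability assay, IC50 reflecting suppression of K052 cell growth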
Description: SANGER: Inhibition of human K052 cell growth in a cell viability assay.

LC-1F = assay: cells; format: functional, cell-based; details: Homo sapiens;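 note: growth inhibition of human LC-1F cells, read out with a cell viability assay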
Description: SANGER: Inhibition of human LC-1F cell growth in a cell viability assay.

NCI-H64 = assay: cells; format: functional, cell-based; details: Homo sapiens;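 note: growth inhibition of NCI-H64 cells, read out with a cell viability assay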
Description: SANGER: Inhibition of human NCI-H64 cell growth in a cell viability assay.

UACC-812 = assay: cells; format: functional, cell-based; details: Homo sapiens
Description: SANGER: Inhibition of human UACC-812 cell growth in a cell viability assay.

U-698-M = assay: cells; format: functional, cell-based; details: Homo sapiens
Description: SANGER: Inhibition of human U-698-M cell growth in a cell viability assay.

DMS-153 = assay: cells; format: functional, cell-based; details: Homo sapiens
Description: SANGER: Inhibition of human DMS-153 cell growth in a cell viability assay.

EB-3 = assay: cells; format: functional, cell-based; details: Homo sapiens;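 note: human EB-3 cells, growth inhibition read out via a cell viability assay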
Description: SANGER: Inhibition of human EB-3 cell growth in a cell viability assay.

THP-1 = assay: cells; format: functional, cell-based; details: Homo sapiens;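 note: growth inhibition of THP-1 cells, read out via a cell viability assay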
Description: SANGER: Inhibition of human THP-1 cell growth in a cell viability assay.

NB1 = assay: cells; format: functional, cell-based; details: Homo sapiens;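 note: reduction of NB1 cell proliferation, read out with a viability assay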
Description: SANGER: Inhibition of human NB1 cell growth in a cell viability assay.

CHP-126 = assay: cells; format: functional, cell-based; details: Homo sapiens
Description: SANGER: Inhibition of human CHP-126 cell growth in a cell viability assay.

EW-22 = assay: cells; format: functional, cell-based; details: Homo sapiens;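 note: growth inhibition of the EW-22 cell line, measured with a cell viability readout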
Description: SANGER: Inhibition of human EW-22 cell growth in a cell viability assay.

WSU-NHL = assay: cells; format: functional, cell-based; details: Homo sapiens;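 note: growth inhibition of human WSU-NHL cells, read out with a cell viability assay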
Description: SANGER: Inhibition of human WSU-NHL cell growth in a cell viability assay.

CA46 = assay: cells; format: functional, cell-based; details: Homo sapiens;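 note: growth inhibition of human CA46 cells, read out by a cell viability assay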
Description: SANGER: Inhibition of human CA46 cell growth in a cell viability assay.

NCI-H2227 = assay: cells; format: functional, cell-based; details: Homo sapiens;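 note: growth inhibition of the human cell line, read out with a cell viability assay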
Description: SANGER: Inhibition of human NCI-H2227 cell growth in a cell viability assay.

NCI-H1522 = assay: cells; format: functional, cell-based; details: Homo sapiens;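 note: growth inhibition of NCI-H1522 cells, read out with a cell viability assay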
Description: SANGER: Inhibition of human NCI-H1522 cell growth in a cell viability assay.

MONO-MAC-6 = assay: cells; format: functional, cell-based; details: Homo sapiens;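 note: cell viability assay measuring growth inhibition of human MONO-MAC-6 cells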
Description: SANGER: Inhibition of human MONO-MAC-6 cell growth in a cell viability assay.

RL95-2 = assay: cells; format: functional, cell-based; details: Homo sapiens;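 note: RL95-2 growth inhibition determined through a cell viability readout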
Description: SANGER: Inhibition of human RL95-2 cell growth in a cell viability assay.

TALL-1 = assay: cells; format: functional, cell-based; details: Homo sapiens;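 note: growth inhibition of cultured human TALL-1 cells, read out by a cell viability assay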
Description: SANGER: Inhibition of human TALL-1 cell growth in a cell viability assay.

ECC12 = assay: cells; format: functional, cell-based; details: Homo sapiens
Description: SANGER: Inhibition of human ECC12 cell growth in a cell viability assay.

SU-DHL-1 = assay: SANGER: Inhibition of human SU-DHL-1 cell growth in a cell viability assay.; format: functional, cell-based
BC1 cell line = assay: SANGER: Inhibition of human BC-1 cell growth in a cell viability assay.; format: functional, cell-based
SIG-M5 = assay: cells; format: functional, cell-based; details: Homo sapiens;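 note: cell viability assay read-out, measuring how strongly growth of cultured human SIG-M5 cells is inhibited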
Description: SANGER: Inhibition of human SIG-M5 cell growth in a cell viability assay.

NCI-H1694 = assay: cells; format: functional, cell-based; details: Homo sapiens;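 note: cell viability assay measuring inhibition of growth in human NCI-H1694 cells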
Description: SANGER: Inhibition of human NCI-H1694 cell growth in a cell viability assay.

EB2 = assay: cells; format: functional, cell-based; details: Homo sapiens;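 note: growth inhibition of EB2 cells, read out with a cell viability assay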
Description: SANGER: Inhibition of human EB2 cell growth in a cell viability assay.

MRK-nu-1 = assay: cells; format: functional, cell-based; details: Homo sapiens;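 note: cell viability assay measuring growth suppression of human MRK-nu-1 cells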
Description: SANGER: Inhibition of human MRK-nu-1 cell growth in a cell viability assay.

IMR-5 = assay: cells; format: functional, cell-based; details: Homo sapiens;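 note: growth inhibition of human IMR-5 cells, read out with a cell viability assay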
Description: SANGER: Inhibition of human IMR-5 cell growth in a cell viability assay.

P31-FUJ = assay: cells; format: functional, cell-based; details: Homo sapiens;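 note: growth inhibition of P31-FUJ cells, read out with a viability assay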
Description: SANGER: Inhibition of human P31-FUJ cell growth in a cell viability assay.

SIMA = assay: cells; format: functional, cell-based, Homo sapiens; details: Homo sapiens, SIMA;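 note: growth inhibition of SIMA cells, measured with a cell viability readout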
Description: SANGER: Inhibition of human SIMA cell growth in a cell viability assay.

HCC1599 = assay: cells; format: functional, cell-based; details: Homo sapiens;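 note: growth inhibition of HCC1599 cells, read out in a cell viability assay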
Description: SANGER: Inhibition of human HCC1599 cell growth in a cell viability assay.

HSC-4 = assay: cells; format: functional, cell-based, Homo sapiens; details: Homo sapiens, HSC-4;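 note: growth inhibition of human HSC-4 cells, read out with a cell viability assay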
Description: SANGER: Inhibition of human HSC-4 cell growth in a cell viability assay.

SNU-423 = assay: cells; format: functional, cell-based, Homo sapiens; details: Homo sapiens, SNU-423
Description: SANGER: Inhibition of human SNU-423 cell growth in a cell viability assay.

NCI-H2009 = assay: cells; format: functional, cell-based, Homo sapiens; details: Homo sapiens, NCI-H2009;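 note: cell viability assay measuring inhibition of NCI-H2009 cell growth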
Description: SANGER: Inhibition of human NCI-H2009 cell growth in a cell viability assay.

NCI-H522 = assay: cells; format: functional, cell-based, Homo sapiens; details: Homo sapiens, NCI-H522;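 note: cell viability assay measuring growth inhibition of human NCI-H522 cells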
Description: SANGER: Inhibition of human NCI-H522 cell growth in a cell viability assay.

CCc1nc(N)nc(N)c1-c1ccc(Cl)cc1 [PYRIMETHAMINE]
IC50 (SCC-3): 1.84 µM | IC50 (LB647-SCLC): > 20 µM | IC50 (NCI-H2196): > 20 µM | IC50 (REH): > 20 µM | IC50 (NCI-H1882): > 20 µM | IC50 (NCI-H719): > 20 µM | IC50 (BC-3): 19.5 µM | IC50 (TE-15): > 20 µM | IC50 (NCI-H1963): > 20 µM | IC50 (SUP-T1): > 20 µM | IC50 (CESS): 5.71 µM | IC50 (LOUCY): 10.9 µM | IC50 (SK-MM-2): > 20 µM | IC50 (PF-382): 14.6 µM | IC50 (NCI-H322M): > 20 µM | IC50 (KARPAS-422): 18.2 µM | IC50 (IM-9): > 20 µM | IC50 (K052): > 20 µM | IC50 (LC-1F): > 20 µM | IC50 (NCI-H64): > 20 µM | IC50 (UACC-812): > 20 µM | IC50 (U-698-M): > 20 µM | IC50 (DMS-153): > 20 µM | IC50 (EB-3): > 20 µM | IC50 (THP-1): > 20 µM | IC50 (NB1): > 20 µM | IC50 (CHP-126): > 20 µM | IC50 (EW-22): > 20 µM | IC50 (WSU-NHL): > 20 µM | IC50 (CA46): > 20 µM | IC50 (NCI-H2227): > 20 µM | IC50 (NCI-H1522): > 20 µM | IC50 (MONO-MAC-6): 16.3 µM | IC50 (RL95-2): 15.7 µM | IC50 (TALL-1): > 20 µM | IC50 (ECC12): 2.56 µM | IC50 (SU-DHL-1): 10.8 µM | IC50 (BC1 cell line): 5.1 µM | IC50 (SIG-M5): 7.98 µM | IC50 (NCI-H1694): > 20 µM | IC50 (EB2): > 20 µM | IC50 (MRK-nu-1): > 20 µM | IC50 (IMR-5): > 20 µM | IC50 (P31-FUJ): > 20 µM | IC50 (SIMA): > 20 µM | IC50 (HCC1599): > 20 µM

COC(=O)CNC(=O)C(=O)OC
IC50 (SCC-3): 1740 µM | IC50 (LB647-SCLC): 3530 µM | IC50 (NCI-H2196): 2960 µM | IC50 (REH): 308 µM | IC50 (NCI-H1882): 134 µM | IC50 (NCI-H719): 566 µM | IC50 (HSC-4): 414 µM | IC50 (BC-3): 305 µM | IC50 (TE-15): 218 µM | IC50 (NCI-H1963): 1030 µM | IC50 (SUP-T1): 143 µM | IC50 (CESS): 60.8 µM | IC50 (LOUCY): 10.3 µM | IC50 (SK-MM-2): 101 µM | IC50 (PF-382): 85.4 µM | IC50 (NCI-H322M): > 4000 µM | IC50 (KARPAS-422): 162 µM | IC50 (IM-9): > 4000 µM | IC50 (SNU-423): 175 µM | IC50 (K052): 171 µM | IC50 (LC-1F): > 4000 µM | IC50 (NCI-H2009): 296 µM | IC50 (NCI-H64): 273 µM | IC50 (UACC-812): 3010 µM | IC50 (U-698-M): 13.3 µM | IC50 (DMS-153): > 4000 µM | IC50 (EB-3): 49.6 µM | IC50 (THP-1): > 4000 µM | IC50 (NB1): 210 µM | IC50 (CHP-126): 3500 µM | IC50 (WSU-NHL): > 4000 µM | IC50 (CA46): 96 µM | IC50 (NCI-H522): 293 µM | IC50 (NCI-H2227): 3060 µM | IC50 (NCI-H1522): > 4000 µM | IC50 (MONO-MAC-6): 202 µM | IC50 (RL95-2): 3590 µM | IC50 (TALL-1): > 4000 µM | IC50 (ECC12): 1800 µM | IC50 (SU-DHL-1): 125 µM | IC50 (BC1 cell line): 86.1 µM | IC50 (SIG-M5): 57.6 µM | IC50 (NCI-H1694): 291 µM | IC50 (EB2): 297 µM | IC50 (MRK-nu-1): 1800 µM | IC50 (IMR-5): 254 µM | IC50 (P31-FUJ): > 4000 µM | IC50 (SIMA): 846 µM | IC50 (HCC1599): 129 µM

C=C1C(=O)O[C@@H]2C3O[C@]3(C)CC/C=C(\C)CC[C@@H]12 (stereo partly specified)
IC50 (SCC-3): 2.8 µM | IC50 (LB647-SCLC): > 5 µM | IC50 (NCI-H2196): 0.645 µM | IC50 (REH): > 5 µM | IC50 (NCI-H1882): > 5 µM | IC50 (NCI-H719): > 5 µM | IC50 (BC-3): > 5 µM | IC50 (TE-15): > 5 µM | IC50 (NCI-H1963): > 5 µM | IC50 (SUP-T1): > 5 µM | IC50 (CESS): > 5 µM | IC50 (LOUCY): > 5 µM | IC50 (SK-MM-2): > 5 µM | IC50 (PF-382): > 5 µM | IC50 (NCI-H322M): > 5 µM | IC50 (KARPAS-422): > 5 µM | IC50 (IM-9): > 5 µM | IC50 (K052): > 5 µM | IC50 (LC-1F): > 5 µM | IC50 (NCI-H64): > 5 µM | IC50 (UACC-812): > 5 µM | IC50 (U-698-M): > 5 µM | IC50 (DMS-153): > 5 µM | IC50 (EB-3): > 5 µM | IC50 (THP-1): > 5 µM | IC50 (NB1): > 5 µM | IC50 (CHP-126): > 5 µM | IC50 (EW-22): > 5 µM | IC50 (WSU-NHL): > 5 µM | IC50 (CA46): > 5 µM | IC50 (NCI-H2227): > 5 µM | IC50 (NCI-H1522): > 5 µM | IC50 (MONO-MAC-6): > 5 µM | IC50 (RL95-2): > 5 µM | IC50 (TALL-1): > 5 µM | IC50 (ECC12): > 5 µM | IC50 (SU-DHL-1): > 5 µM | IC50 (BC1 cell line): > 5 µM | IC50 (SIG-M5): > 5 µM | IC50 (NCI-H1694): > 5 µM | IC50 (EB2): > 5 µM | IC50 (MRK-nu-1): 2.01 µM | IC50 (IMR-5): > 5 µM | IC50 (P31-FUJ): > 5 µM | IC50 (SIMA): > 5 µM | IC50 (HCC1599): > 5 µM
